These results are taken from patent US20140314791A1, “METHODS OF TREATING CANCER” (DANA-FARBER CANCER INSTITUTE, INC., priority 2012, published 2014).

In data set [1] the test system is Lkb1-null versus Lkb1-wt cell lines. Put plainly: Large-scale pooled shRNA library screening (murine 40K pool). The data set is classed as cell-based, mouse.
For data set [2], the system named is Lkb1-wt (634, 855, and 857) and Lkb1-null (t2, t4, and t5) cells. Put plainly: Proliferation assay of shRNA-transduced cells (CellTiter-Glo). The data set is classed as cell-based, mouse. The settings on record: in vitro, puromycin 3 μg/ml. On the procedure:
Viable cells were measured daily using Promega's CellTiter-Glo Assay. Two independent sets of transductions into the 6 cell lines were shown: the first set used shGFP, shDtymk-1, and shChek1-4 (upper panels), and the second set used shGFP, shDtymk-3, and shChek1-1 (lower panels).
Lentiviral production and target cell transduction were performed according to previously description (Moffat et al., 2006). Briefly, 293T cells were co-transfected with pLenti-vector, pCMV-dR8.74psPAX2, and pMD2.G using TransIT-LT1 transfection reagent (Mirus). Thirty-six h after transfection, the supernatant was harvested and spun at 3000 rpm/4° C. for 10 min, and then incubated with target cells in the presence of 8 μg/ml polybrene (Sigma) for 24 h. Two days after infection, the cells were collected for further analysis as indicated in the presence of 3 μg/ml Puromycin (Invitrogen).
Cells were plated into 96-well plates at 2000 cells per well in 100 μl, with addition of puromycin at 3 μg/ml for shRNA lentivirus infected cells, or with addition of variable doses of drug for drug treatment effects. Viable cells were measured daily or for a period of up to 3 days either by CellTiter-Glo Luminescent Cell Viability Assay (Promega) or by Cell Counting Kit-8 (CCK-8) (Dojindo) according to the manufacturer's instructions. All proliferation assays were performed in triplicate wells.
Depletion of DTYMK and CHEK1 was confirmed by Western blot (FIG. 11B).
For orientation: ATP-based viability assays read luminescence as a measure of living cells.

The test system of data set [3] is dTMP and dTDP levels in Lkb1-wt 634 and Lkb1-null t4 cells. Put plainly: Metabolite analysis of dTMP and dTDP after Dtymk knockdown. The class given is cell-based, mouse. The settings on record: 3 days. How it is done: (A) Graph of dTMP and dTDP levels in Lkb1-wt 634, Lkb1-null t4, and human LKB1-deficient NSCLC A549 cells transduced with the indicated shRNA for 3 days. The data represent mean±SD for 6 replicates.
Cells were plated into 6-well plates in RPMI 1640/10% dialyzed FBS/1% pen/strep and medium was changed daily. When the cells reached 80% confluence, they were washed 3 times with warm washing buffer (75 mM ammonium carbonate, pH7.4), and plates were then immediately placed on dry ice. 500 μl of extraction buffer (80% methanol, −80° C.) was added to each well and the plates were kept on dry ice for 15 min. The supernatants were collected into 1.5 ml eppendorf tubes, and another 500 μl of cold extraction buffer was added to each well. After 15 min incubation on dry ice, the supernatant and the cells were collected and pooled with the previously collected supernatant. The tubes were spun at 3750 rpm/4° C. for 30 min, and then supernatants were transferred into fresh tubes and saved at −80° C. All reactions were performed with 5 replicates.
Prior to mass spectrometer injection, dried extracts were reconstituted in LCMS grade water. Non-targeted, flow-injection time-of-flight mass spectrometry was performed as described (Fuhrer et al., 2011). […] Mass spectra were recorded from m/z 50 to 1000 with a frequency of 1.4 spectra/s for 0.48 min using the highest resolving power (4 GHz HiRes). […]

A further data set relates to Lkb1-wt cells. Put plainly: IdU pulse-labeling after Dtymk knockdown, Lkb1-wt. The class given is cell-based, mouse. The settings on record: for proportion of cells labeled with IdU: mean. How it is done:
(§1) (E) Lkb1-wt and Lkb1-null cells in 6-well plates were transduced with shDtymk-1 or shGFP. Two sets of the cells were plated into multiple chamber slides: one was 2 days and the other was 3 days post transduction. After overnight culturing, the cells were labeled with 100 μM IdU for 20 min then fixed for indirect immunofluorescence staining with anti-BrdU. The data represent mean±SD for 200˜300 cells. Representative merged images of BrdU (red) and DAPI (blue) in the indicated cells are shown (F).
(§2) The lower expression of DTYMK in Lkb1-null cells causes the cells to be in jeopardy of DNA damage. To investigate how further knockdown of Dtymk and the consequent decrease in the dTTP pool could affect DNA metabolism, IdU pulse-labeling in Lkb1-wt and Lkb1-null cells was performed 2.5 and 3.5 days post-transduction with shDtymk-1. […] The representative images of Lkb1-wt and Lkb1-null cells co-stained for IdU and DAPI are shown (FIG. 5F). In addition, an overall lower proportion of labeled Lkb1-null than Lkb1-wt cells (43.1% vs. 57.7%) was observed, which may be related to the lower dNTP levels in Lkb1-null cells.

Another data set concerns Lkb1-null cells. Put plainly: IdU pulse-labeling after Dtymk knockdown, Lkb1-null. The class given is cell-based, mouse. The settings on record: for proportion of cells labeled with IdU: mean. On the procedure: as §1, §2
A further data set deals with Dtymk. Put plainly: QPCR analysis of Dtymk knockdown in Lkb1-wt 634 cells. The settings on record: normalized to shGFP.

Regarding “shDtymk-1: shRNA hairpin CAAGCTTCTGAATTCCTACTT targeting Mouse Dtymk”, the “Hairpin-rank in pooled shRNA screen” value in data set [1] (Table 6) came to 27050. In addition, the NES in data set [1] (gene-level normalized enrichment score over all hairpins of the gene) was 1.540. The same substance displayed a Gene rank in data set [1] (gene-level rank by NES) of 91. Moreover, in data set [1] (number of the gene's hairpins ranked within top 500), the “# HP 500” value is recorded as 1. The “# HP 1000” value in data set [1] (number of the gene's hairpins ranked within top 1000) was 1. The “# HP 5000” value in data set [1] (number of the gene's hairpins ranked within top 5000) turned out to be 1. Further, the “# HP 10000” value in data set [1] (number of the gene's hairpins ranked within top 10000) was found to be 2. Besides, in data set [2], the “cell growth compared to shGFP control, Lkb1-null versus Lkb1-wt” value was “inhibition was stronger in Lkb1-null cells”. The dTDP level result in data set [3] is given as “moderate decrease”. Further, the dTMP level entry in data set [3] is given as “significant increase”. The “proportion of cells labeled with IdU” value in the data set on Lkb1-wt cells (day 2.5 post infection) was determined as 46.3%; in the data set with Lkb1-wt cells (day 3.5 post infection), 22.3%; with Lkb1-null cells (day 2.5 post infection), 17.2%; in the data set with Lkb1-null cells (day 3.5 post infection) it was 5.8%. Moreover, the entries for the “drop of proportion of IdU-labeled cells” value with Lkb1-wt cells (in 3.5 days) and with Lkb1-null cells (in 3.5 days) were 61.2% and 86.5%, respectively. Further, the “mRNA remaining (by qPCR)” value with Dtymk is 20.00%.
